Measurements: ChEMBL document CHEMBL4270506, “Recent advances in drug discovery of phototherapeutic non-porphyrinic anticancer agents” (Eur J Med Chem, 2017)

Experiments:
SK-OV-3 = test: Phototoxicity in human SKOV3 cells assessed as reduction in cell viability in presence of irradiation with green lED light at 25.2 J/cm2 for 2 hrs followed by incubation in dark for 24 hrs by MTT assay; type: functional, cell-based; settings: SK-OV-3, light or radiation study
[1] = Phototoxicity in mouse DLA cells assessed as inhibition of cell viability illuminated for 10 mins at total dose of 46 J/cm2 irradiation by trypan blue dye exclusion method; type: functional
[2] = Dark toxicity in mouse DLA cells assessed as inhibition of cell viability by trypan blue dye exclusion method; type: cell-based; settings: read-out: INH
[3] = Phototoxicity in human […] cells assessed as cell viability at 5 ug/ml under irradiation at 532 nm by CCK8 assay; type: functional; settings: light or radiation study, read-out: Activity
[4] = Dark toxicity in human […] cells assessed as cell viability at 50 ug/ml by CCK8 assay; type: cell-based; settings: read-out: Activity
[5] = Dark toxicity in human Jurkat cells assessed as reduction in cell viability after 72 hrs by MTT assay; type: cell-based
Jurkat = test: Phototoxicity in human Jurkat cells assessed as cell viability at 2 to 8 umol/L pre-incubated for 30 mins before irradiation at 365 nm at 3.75 J/cm2 and measured after 72 hrs by MTT assay; type: functional; settings: light or radiation study
LoVo = test: Phototoxicity in human LoVo cells assessed as cell viability at 2 to 8 umol/L pre-incubated for 30 mins before irradiation at 365 nm at 3.75 J/cm2 and measured after 72 hrs by MTT assay; type: functional; settings: light or radiation study
[6] = Dark toxicity in human K562 cells assessed as reduction in cell viability after 72 hrs by MTT assay; type: cell-based
[7] = Dark toxicity in human LoVo cells assessed as reduction in cell viability after 72 hrs by MTT assay; type: cell-based
K562 = test: Phototoxicity in human K562 cells assessed as cell viability at 2 to 8 umol/L pre-incubated for 30 mins before irradiation at 365 nm at 3.75 J/cm2 and measured after 72 hrs by MTT assay; type: functional; settings: K562, light or radiation study
A-431 = test: Phototoxicity in human A431 cells assessed as cell viability at 2 to 8 umol/L pre-incubated for 30 mins before irradiation at 365 nm at 3.75 J/cm2 and measured after 72 hrs by MTT assay; type: functional; settings: A-431, light or radiation study
[8] = Dark toxicity in human A431 cells assessed as reduction in cell viability after 72 hrs by MTT assay; type: cell-based, A-431
[9] = Phototoxicity in human […] cells assessed as cell viability at 10 ug/ml under irradiation at 457 nm at 20 J/cm2 by CCK8 assay; type: functional; settings: light or radiation study, read-out: Activity
[10] = Dark toxicity in human […] cells assessed as cell viability at 10 ug/ml by CCK8 assay; type: cell-based; settings: read-out: Activity
[11] = Lipophilicity, log P of the compound; type: physicochemical; settings: octanol/water
[12] = Dark toxicity in human MIAPaCa2 cells assessed as inhibition of cell growth at 6.25 to 25 uM incubated for 24 hrs by MTT assay; type: cell-based, MIA PaCa-2; settings: read-out: GI
MIA PaCa-2 [13] = test: Phototoxicity in human MIAPaCa2 cells assessed as inhibition of cell growth at 25 uM pre-incubated for 3 hrs before irradiation with 780 nm light for 1 mins and measured after 24 hrs by MTT assay; type: functional; settings: MIA PaCa-2, light or radiation study, read-out: GI
BXPC-3 [14] = test: Phototoxicity in human BxPC3 cells assessed as inhibition of cell growth at 25 uM pre-incubated for 3 hrs before irradiation with 780 nm light for 1 mins and measured after 24 hrs by MTT assay; type: functional; settings: BXPC-3, light or radiation study, read-out: GI
BXPC-3 [15] = test: Phototoxicity in human BxPC3 cells assessed as inhibition of cell growth at 6.25 uM pre-incubated for 3 hrs before irradiation with 780 nm light for 1 mins and measured after 24 hrs by MTT assay; type: functional; settings: BXPC-3, light or radiation study, read-out: GI
MIA PaCa-2 [16] = test: Phototoxicity in human MIAPaCa2 cells assessed as inhibition of cell growth at 6.25 uM pre-incubated for 3 hrs before irradiation with 780 nm light for 1 mins and measured after 24 hrs by MTT assay; type: functional; settings: MIA PaCa-2, light or radiation study, read-out: GI
MIA PaCa-2 [17] = test: Phototoxicity in human MIAPaCa2 cells assessed as inhibition of cell growth at 12.5 uM pre-incubated for 3 hrs before irradiation with 780 nm light for 1 mins and measured after 24 hrs by MTT assay; type: functional; settings: MIA PaCa-2, light or radiation study, read-out: GI
[18] = Dark toxicity in human BxPC3 cells assessed as inhibition of cell growth at 6.25 to 25 uM incubated for 24 hrs by MTT assay; type: cell-based, BXPC-3; settings: read-out: GI
BXPC-3 [19] = test: Phototoxicity in human BxPC3 cells assessed as inhibition of cell growth at 12.5 uM pre-incubated for 3 hrs before irradiation with 780 nm light for 1 mins and measured after 24 hrs by MTT assay; type: functional; settings: BXPC-3, light or radiation study, read-out: GI

CC1=C(I)C(C)=[N+]2C1=Cc1c(C)c(I)c(C)n1[B-]2(F)F
EC50 (SK-OV-3): 0.0288 µM

CC(C)c1ccc(C2=C([O-])/C(=C\c3sc4cc(I)ccc4[n+]3CCCCS(=O)(=O)O)C2=O)cc1
inhibition (INH) [1]: 80% | cytotoxicity [2]: < 10%

CCN(CC)c1ccc(/C=C2\CC/C(=C\c3ccc(N(CCC(=O)O)CCC(=O)O)cc3)C2=O)cc1
viability at 5 µg/mL [3]: > 80% | viability at 50 ug/ml [4]: > 70%

CCOC(=O)c1cc2c(n1Cc1ccc(C)cc1)-c1nc(N)ncc1CC2
GI50 at 72 h [5]: > 20 µM | GI50 (Jurkat): 0.23 µM | GI50 (LoVo): 0.34 µM | GI50 at 72 h [6]: > 20 µM | GI50 at 72 h [7]: > 20 µM | GI50 (K562): 0.41 µM | GI50 (A-431): 0.26 µM | GI50 at 72 h [8]: > 20 µM

COCCOCCOCCOCCN(CCOCCOCCOCCOC)c1ccc(/C=C2\CC/C(=C\c3ccc(N(CCOCCOCCOCCOC)CCOCCOCCOCCOC)cc3)C2=O)cc1
viability at 10 µg/mL [9]: > 60% | viability at 10 ug/ml [10]: > 80% | logP [11]: 2.32 to 3.04

CC1(C)C(/C=C/C2=C(Cl)C(=C/C=C3/N(CCCCS(=O)(=O)O)c4cc(I)cc(I)c4C3(C)C)/CCC2)=[N+](CCCCS(=O)(=O)O)c2cc(I)cc(I)c21
inhibition at 24 h, up to 25 µM [12]: 0% | inhibition of growth at 25 µM (MIA PaCa-2 [13]): 70% | inhibition of growth at 25 µM (BXPC-3 [14]): 40% | inhibition of growth at 6.25 µM (BXPC-3 [15]): > 10% | inhibition of growth at 6.25 µM (MIA PaCa-2 [16]): 20% | inhibition of growth at 12.5 µM (MIA PaCa-2 [17]): > 40% | inhibition at 24 h, up to 25 µM [18]: 0% | inhibition of growth at 12.5 µM (BXPC-3 [19]): > 20%

CN(CCC(=O)O)c1ccc(/C=C2\CC/C(=C\c3ccc(N(C)CCC(=O)O)cc3)C2=O)cc1
viability at 5 µg/mL [3]: > 80% | viability at 50 ug/ml [4]: > 70%

CCN1/C(=C\C2=C([O-])C(=C\c3sc4cc(I)ccc4[n+]3CCCCS(=O)(=O)O)/C2=O)Sc2ccccc21
inhibition (INH) [1]: 95 - 100% | cytotoxicity [2]: < 10%

CCOC(=O)c1cc2c(n1C)-c1nc(N)ncc1CC2
GI50 at 72 h [5]: > 20 µM | GI50 (Jurkat): 8.42 µM | GI50 (LoVo): > 20 µM | GI50 at 72 h [6]: > 20 µM | GI50 at 72 h [7]: > 20 µM | GI50 (K562): > 20 µM | GI50 (A-431): > 20 µM | GI50 at 72 h [8]: > 20 µM

COCCOCCOCCOCCN(C)c1ccc(/C=C2\CC/C(=C\c3ccc(N(C)CCOCCOCCOCCOC)cc3)C2=O)cc1
viability at 10 µg/mL [9]: < 10% | viability at 10 ug/ml [10]: > 80% | logP [11]: 2.32 to 3.04

CC1=C(I)C(C)=[N+]2C1=C(c1c(Cl)cccc1Cl)c1c(C)c(I)c(C)n1[B-]2(F)F
EC50 (SK-OV-3): 0.00077 µM

CCN(CC)c1ccc(/C=C2\CC/C(=C\c3ccc(N(C)CCC(=O)O)cc3)C2=O)cc1
viability at 5 µg/mL [3]: < 10% | viability at 50 ug/ml [4]: < 30%

CCOC(=O)c1cc2c(n1Cc1ccccc1)-c1nc(N)ncc1CC2
GI50 at 72 h [5]: 14 µM | GI50 (Jurkat): 0.21 µM | GI50 (LoVo): 0.44 µM | GI50 at 72 h [6]: > 20 µM | GI50 at 72 h [7]: 14.2 µM | GI50 (K562): 0.48 µM | GI50 (A-431): 0.39 µM | GI50 at 72 h [8]: > 20 µM

CC1=C(I)C(C)=[N+]2C1=C(c1ccc([N+](=O)[O-])cc1)c1c(C)c(I)c(C)n1[B-]2(F)F
EC50 (SK-OV-3): 0.00201 µM

CCN(CC)c1ccc(/C=C2\CC/C(=C\c3ccc(N(CCOCCOCCOCCOC)CCOCCOCCOCCOC)cc3)C2=O)cc1
viability at 10 µg/mL [9]: 10% | viability at 10 ug/ml [10]: > 80% | logP [11]: 2.32 to 3.04

CCOC(=O)c1cc2c(n1C)-c1[nH]c(=O)ncc1CC2
GI50 at 72 h [5]: 6 µM | GI50 (Jurkat): 1.08 µM | GI50 (LoVo): 2.3 µM | GI50 at 72 h [6]: > 20 µM | GI50 at 72 h [7]: > 20 µM | GI50 (K562): 2.92 µM | GI50 (A-431): 2.45 µM | GI50 at 72 h [8]: > 20 µM

O=C1C(/C=C2/Sc3cc(I)ccc3N2CCCCS(=O)(=O)O)=C([O-])C/1=C\c1sc2cc(I)ccc2[n+]1CCCCS(=O)(=O)O
inhibition (INH) [1]: 95 - 100% | cytotoxicity [2]: < 10%

COc1ccc(C2=C3C(C)=C(I)C(C)=[N+]3[B-](F)(F)n3c(C)c(I)c(C)c32)cc1
EC50 (SK-OV-3): 0.00065 µM

Cn1ccc2c1-c1[nH]c(=O)ncc1CC2
GI50 at 72 h [5]: > 20 µM | GI50 (Jurkat): > 20 µM | GI50 (LoVo): > 20 µM | GI50 at 72 h [6]: > 20 µM | GI50 at 72 h [7]: > 20 µM | GI50 (K562): > 20 µM | GI50 (A-431): > 20 µM | GI50 at 72 h [8]: > 20 µM

COCCOCCOCCN(CCOCCOCCOC)c1ccc(/C=C2\CC/C(=C\c3ccc(N(CCOCCOCCOC)CCOCCOCCOC)cc3)C2=O)cc1
viability at 10 µg/mL [9]: 60% | viability at 10 ug/ml [10]: > 80% | logP [11]: 2.32 to 3.04

CC1(C)C(/C=C/C2=C(Cl)C(=C/C=C3/N(CCCCS(=O)(=O)O)c4ccc(I)cc4C3(C)C)/CCC2)=[N+](CCCCS(=O)(=O)O)c2ccc(I)cc21
inhibition at 24 h, up to 25 µM [12]: 0% | inhibition of growth at 25 µM (MIA PaCa-2 [13]): > 80% | inhibition of growth at 25 µM (BXPC-3 [14]): 40% | inhibition of growth at 6.25 µM (BXPC-3 [15]): > 10% | inhibition of growth at 6.25 µM (MIA PaCa-2 [16]): 30% | inhibition of growth at 12.5 µM (MIA PaCa-2 [17]): > 60% | inhibition at 24 h, up to 25 µM [18]: 0% | inhibition of growth at 12.5 µM (BXPC-3 [19]): > 20%

O=C(O)CCN(CCC(=O)O)c1ccc(/C=C2\CC/C(=C\c3ccc(N(CCC(=O)O)CCC(=O)O)cc3)C2=O)cc1
viability at 5 µg/mL [3]: > 80% | viability at 50 ug/ml [4]: > 70%

CC1=C(I)C(C)=[N+]2C1=C(c1ccncc1)c1c(C)c(I)c(C)n1[B-]2(F)F
EC50 (SK-OV-3): 0.00129 µM

CC1(C)C(/C=C/C=C/C=C/C=C2\N(CCCCS(=O)(=O)O)c3ccc4ccccc4c3C2(C)C)=[N+](CCCCS(=O)(=O)[O-])c2ccc3ccccc3c21 [INDOCYANINE GREEN]
inhibition at 24 h, up to 25 µM [12]: 0% | inhibition of growth at 25 µM (MIA PaCa-2 [13]): 0% | inhibition of growth at 25 µM (BXPC-3 [14]): 0% | inhibition of growth at 6.25 µM (BXPC-3 [15]): 0% | inhibition of growth at 6.25 µM (MIA PaCa-2 [16]): 0% | inhibition of growth at 12.5 µM (MIA PaCa-2 [17]): 0% | inhibition at 24 h, up to 25 µM [18]: 0% | inhibition of growth at 12.5 µM (BXPC-3 [19]): 0%
